Tests used:
prion degradation = format: cell-based, human; details: HeLa cells, Ad-Prion 48 hours, 1 mM
HeLa cells = assay: SRB cell viability assay; format: cell-based, human; details: 72 hours after treatment
Experimental: (§1) Anticancer effects of PKR-targeting compounds depend on PKR expression status: To identify compounds that can target lysosomes in PKR-positive cells or MVBs/exosomes in PKR-negative cells, the 10,000-compound ChemBridge library was screened for compounds with different effects on the growth of HeLa and HeLaPKRkd cells. […] SRB assays were next used to determine cell viability after treatment with Pac 1 or Pac 2.
(§2) Cell viability assays: For SRB assays, cells (2-8×10^3/well in 100 μL of culture medium) were seeded in 96-well flat-bottomed plates and treated the next day with compounds at the indicated concentrations. After the indicated treatments, cells were fixed with trichloroacetic acid. The protein was stained with SRB, and the optical density at 570 nm was determined. Relative cell viability was calculated by setting the viability rate of the control cells (exposed only to dimethyl sulfoxide) at 100% and comparing the viability of the treated cells with that of the controls. The experiments were performed at least three times for each cell line. The viability of leukemia cell lines was determined by using a 3-(4,5-dimethylthiazol-2-yl)-2,5-diphenyltetrazolium bromide assay.
(§3) Identification of PKR-associated compounds and cytotoxicity studies: The library of 10,000 compounds was screened for those with different effects on the growth of HeLa and HeLaPKRkd cells. […] Treated cells were observed under a microscope to detect morphologic changes, and their viability was determined using SRB assays 2 and 3 days after treatment. […]
(§4) For the SRB assay, cells (2-8×10^3/well in 100 μL of culture medium) were seeded in 96-well flat-bottomed plates and treated the next day with compounds at the indicated concentrations. […] The cells were stained using SRB, and the optical density at 570 nm was determined. Relative cell viability was determined by setting the viability of the control cells (exposed only to dimethyl sulfoxide) at 100% and comparing their viability with that of the treated cells. […]

HeLaPKRkd cells [1] = assay: SRB cell viability assay; format: cell-based, human; details: 72 hours after treatment
Experimental: as §1, §2, §3, §4

[2] = system: normal cells (HBE, human mammary epithelial cells); assay: SRB cell viability assay, normal cells; format: cell-based; details: 72 hours after treatment, HBE and human mammary epithelial cells
Experimental: The effects of Pac 1 and Pac 2 were next examined on PKR protein expression in HeLa cells using Western blot analysis. […] No reduction in normal cell viability was observed after treatment with Pac 1 or Pac 2 (FIGS. 5F and G). […] Because most of the cancer cell lines that were tested were more sensitive to Pac 1 than to Pac 2, Pac 1 was further investigated.
as §2
For the SRB assay, cells (2-8×10^3/well in 100 μL of culture medium) were seeded in 96-well flat-bottomed plates and treated the next day with compounds at the indicated concentrations. […] The cells were stained using SRB, and the optical density at 570 nm was determined. […]

AP-1/2/3 complexes = assay: Western blot of AP-1, AP-2 and AP-3 complex-associated proteins; format: cell-based, human; details: H1299 and MDA-MB-231 cells, 72 hours after treatment
Excerpt: Western blotting was next used to evaluate proteins known to be involved in AP-1/2/3 complexes in lung (H1299) and breast (MDA-MB-231) cancer cells after treatment with Pac 1 or Pac 2. […] AP-1 and AP-2 mediate protein sorting in the endosome, trans-Golgi network, and plasma membrane. […] The impact of Pac 1 was then investigated on lysosome function by staining cells with the acidophilic dye LysoTracker Red.

[3] = system: lysosomes and MVBs/exosomes; assay: Transmission electron microscopy (TEM) of treated cells; format: cell-based, human
HeLaPKRkd cells [4] = assay: Microscopic analysis of morphologic changes; format: cell-based, human
Excerpt: as §1
Identification of PKR-associated compounds and cytotoxicity studies: The library of 10,000 compounds was screened for those with different effects on the growth of HeLa and HeLaPKRkd cells. For this screening, both HeLa and HeLaPKRkd cells were seeded in 96-well plates in parallel and treated with each compound at a final concentration of 5 μg/mL. Cells treated with dimethyl sulfoxide (final concentration, 1%) were used as controls. Treated cells were observed under a microscope to detect morphologic changes, and their viability was determined using SRB assays 2 and 3 days after treatment. The compounds initially observed to have different effects on HeLa and HeLaPKRkd cells were subjected to two confirmatory screenings.

Toxicity in mice = details: 50 mg/kg intravenously daily for 7 days

Row | SMILES | prion degradation (prion degradation) | viability of HeLa cells (HeLa cells) | viability of HeLaPKRkd cells (HeLaPKRkd cells [1]) | normal cell viability [2] | expression of proteins associated with AP-1 (Rab7α, HSC70, AP-1γ) or AP-2 (AP-2α) (AP-1/2/3 complexes) | lysosomal exocytosis by TEM ([3]; HeLa cells) | lysosomes and MVBs/exosomes by TEM ([3]; HeLaPKRkd cells) | growth of HeLaPKRkd cells by microscopy (HeLaPKRkd cells [4]) | blood chemistry: aspartate aminotransferase, SGOT, SGPT, alkaline phosphatase, creatine kinase, lactate dehydrogenase levels (Toxicity in mice) | histopathologic examination of major organs (Toxicity in mice; heart, lungs, liver, kidneys, pancreas, spleen)
1 | Cn1cnc(N)c2ncnc1-2 [Pac 3MA, 3-methyladenine] | prevented prion degradation |  |  |  |  |  |  |  |  | 
2 | Fc1ccc(Nc2nc(N/N=C/c3ccc4c(c3)OCO4)nc(N3CCOCC3)n2)cc1 [Pac 2, 1,3-benzodioxole-5-carbaldehyde [4-[(4-fluorophenyl)amino]-6-(4-morpholinyl)-1,3,5-triazin-2-yl]hydrazine] |  | not sensitive | suppressed more effectively by Pac 2 | No reduction | No reduction of expression | induced lysosomal exocytosis | destroyed MVBs/exosomes | suppressed the growth of HeLaPKRkd cells more effectively than did Pac 1 | normal | no significant changes in any major organs
